Experimental findings from ChEMBL document CHEMBL1136264, “Syntheses of sphingosine-1-phosphate stereoisomers and analogues and their interaction with EDG receptors” (Bioorg Med Chem Lett, 2003) are described below.

Activity calls are given as the source filed them. The calls are words filed in the database; no cut-off is given here.

What all share (format): cell-based
The target of assay [1] is Sphingosine 1-phosphate receptor 2 (Homo sapiens) (UniProt O95136). Description: In vitro binding affinity towards Endothelial differentiation G-protein coupled receptor 5 in CHO cells using [3H]S1P as radioligand relative to SIP.
Assay [2] concerns the target Sphingosine 1-phosphate receptor 1 (Homo sapiens) (UniProt P21453). Description: In vitro binding affinity towards Endothelial differentiation G-protein coupled receptor 1 in CHO cells using [3H]S1P as radioligand relative to SIP.
In assay [3] the target is Sphingosine 1-phosphate receptor 3 (Homo sapiens) (UniProt Q99500). Description: In vitro binding affinity towards Endothelial differentiation G-protein coupled receptor 3 in CHO cells using [3H]S1P as radioligand relative to SIP.
The target in assay [4] is Sphingosine 1-phosphate receptor 1 (Homo sapiens) (UniProt P21453). Description: In vitro binding affinity towards Endothelial differentiation G-protein coupled receptor 1 in CHO cells using [3H]S1P as radioligand relative to SIP; Not active.
The target in assay [5] is Sphingosine 1-phosphate receptor 2 (Homo sapiens) (UniProt O95136). Nature of the assay: In vitro binding affinity towards Endothelial differentiation G-protein coupled receptor 5 in CHO cells using [3H]S1P as radioligand relative to SIP; Not active.
Assay [6] concerns the target Sphingosine 1-phosphate receptor 3 (Homo sapiens) (UniProt Q99500). Nature of the assay: In vitro binding affinity towards Endothelial differentiation G-protein coupled receptor 3 in CHO cells using [3H]S1P as radioligand relative to SIP; Not active.

Sequence of Sphingosine 1-phosphate receptor 1 (Homo sapiens) (P21453 whole entry): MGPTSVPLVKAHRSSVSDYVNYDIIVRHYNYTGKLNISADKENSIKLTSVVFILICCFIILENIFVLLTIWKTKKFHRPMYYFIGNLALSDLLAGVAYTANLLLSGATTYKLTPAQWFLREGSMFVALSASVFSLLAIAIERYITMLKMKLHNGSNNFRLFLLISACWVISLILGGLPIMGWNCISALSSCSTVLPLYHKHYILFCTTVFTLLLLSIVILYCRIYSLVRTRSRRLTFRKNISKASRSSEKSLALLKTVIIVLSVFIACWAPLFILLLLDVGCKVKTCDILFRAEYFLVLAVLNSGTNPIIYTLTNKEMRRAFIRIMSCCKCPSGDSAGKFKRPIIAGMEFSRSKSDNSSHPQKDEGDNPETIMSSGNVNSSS
Sequence of Sphingosine 1-phosphate receptor 3 (Homo sapiens) (Q99500 whole entry): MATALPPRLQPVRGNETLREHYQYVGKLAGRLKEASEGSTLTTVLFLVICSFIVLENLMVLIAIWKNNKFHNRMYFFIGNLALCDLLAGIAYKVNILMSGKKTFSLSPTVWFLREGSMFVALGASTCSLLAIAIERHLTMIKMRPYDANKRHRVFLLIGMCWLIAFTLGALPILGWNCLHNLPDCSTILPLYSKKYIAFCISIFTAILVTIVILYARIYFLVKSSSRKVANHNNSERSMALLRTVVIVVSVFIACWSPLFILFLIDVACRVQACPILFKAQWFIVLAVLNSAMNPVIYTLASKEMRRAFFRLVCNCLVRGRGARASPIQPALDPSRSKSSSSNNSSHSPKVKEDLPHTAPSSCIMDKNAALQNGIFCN
Sequence of Sphingosine 1-phosphate receptor 2 (Homo sapiens) (O95136 whole entry): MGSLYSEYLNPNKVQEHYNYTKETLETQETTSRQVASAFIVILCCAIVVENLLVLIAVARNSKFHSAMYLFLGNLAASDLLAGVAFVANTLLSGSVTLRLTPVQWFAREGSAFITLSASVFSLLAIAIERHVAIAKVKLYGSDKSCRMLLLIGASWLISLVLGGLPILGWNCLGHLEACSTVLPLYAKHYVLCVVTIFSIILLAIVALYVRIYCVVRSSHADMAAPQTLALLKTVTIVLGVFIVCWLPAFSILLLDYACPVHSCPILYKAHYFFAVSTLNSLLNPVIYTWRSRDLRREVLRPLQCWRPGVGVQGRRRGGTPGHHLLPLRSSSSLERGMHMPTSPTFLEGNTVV

Regarding `CCCCCCCCCCCCC/C=C/[C@H](O)[C@@H](N)COP(=O)(O)O`, the Relative binding affinity in assay [1] amounted to 23%; in assay [2] it was 27%; in assay [3], 46%.
Take `CCCCCCCCCCCCC/C=C/[C@@H](O)[C@@H](N)COP(=O)(OC)OC`: the Relative binding affinity result in assay [4], in assay [5] and in assay [6] was “inactive” throughout.
Regarding `CCCCCCCCCCCCCCCC[C@@H](N)COP(=O)(O)O`, the Relative binding affinity in assay [3] is 29%.
For `CCCCCCCCCCCCCCC[C@@H](O)[C@@H](N)COP(=O)(O)O`, the Relative binding affinity amounted to 54% in assay [1], 41% in assay [2] and 86% in assay [3].
`CCCCCCCCCCCCCCC[C@H](O)[C@@H](N)COP(=O)(O)O`: the Relative binding affinity in assay [1] was determined as 30%; in assay [2], 12%; in assay [3] it was 51%.
The like results for `CCCCCCCCCCCCC/C=C/[C@H](O)[C@H](N)COP(=O)(O)O` were, in that order, 41%, 7.4% and 20%.
As to `CCCCCCCCCCCCCCC[C@H](O)[C@H](N)COP(=O)(O)O`, the Relative binding affinity entry in assay [4], in assay [5] and in assay [6] was “inactive” each time.
